Experimental data reported in PMC9067983, “Identification of highly selective type II kinase inhibitors with chiral peptidomimetic tails” (Journal of Enzyme Inhibition and Medicinal Chemistry, 2022).
Where a SMILES comes first, the peptide text is derived from it. [ ]: non-standard residue; d: D form. The star is where a group is joined. X1 = Cc1ccc(Nc2ncc3c(n2)N(C)C(=O)N(c2cc(C(=O)*)ccc2C)C3)cn1; Aib = CC(C)(N)C(=O)O

Assays:
Assay in all cases: kinase selectivity profiling
Type in all cases: biochemical
Conditions in all cases: 10µM ATP, read-out: % inhibition (relative to DMSO)
[1] = molecular target: T1, GRK5 (Homo sapiens, UniProt P34947)
T1 construct: purchased Reaction Biology Corp
Method: (§1) Full panel kinase profiling and kinase IC50 measurement were performed by using Reaction Biology Corp. (San Diego, USA).

[2] = molecular target: T2, TLK1 (Homo sapiens, UniProt Q9UKI8)
T2 construct: purchased Reaction Biology Corp
Method: as §1

[3] = molecular target: T3, LRRK2 (Homo sapiens, UniProt Q5S007)
T3 construct: purchased Reaction Biology Corp
Method: as §1

[4] = molecular target: T4, ZIPK/DAPK3 (Homo sapiens, UniProt O43293)
T4 construct: purchased Reaction Biology Corp
Method: as §1

[5] = molecular target: T5, NEK11 (Homo sapiens, UniProt Q8NG66)
T5 construct: purchased Reaction Biology Corp
T5 sequence (Q8NG66 whole entry): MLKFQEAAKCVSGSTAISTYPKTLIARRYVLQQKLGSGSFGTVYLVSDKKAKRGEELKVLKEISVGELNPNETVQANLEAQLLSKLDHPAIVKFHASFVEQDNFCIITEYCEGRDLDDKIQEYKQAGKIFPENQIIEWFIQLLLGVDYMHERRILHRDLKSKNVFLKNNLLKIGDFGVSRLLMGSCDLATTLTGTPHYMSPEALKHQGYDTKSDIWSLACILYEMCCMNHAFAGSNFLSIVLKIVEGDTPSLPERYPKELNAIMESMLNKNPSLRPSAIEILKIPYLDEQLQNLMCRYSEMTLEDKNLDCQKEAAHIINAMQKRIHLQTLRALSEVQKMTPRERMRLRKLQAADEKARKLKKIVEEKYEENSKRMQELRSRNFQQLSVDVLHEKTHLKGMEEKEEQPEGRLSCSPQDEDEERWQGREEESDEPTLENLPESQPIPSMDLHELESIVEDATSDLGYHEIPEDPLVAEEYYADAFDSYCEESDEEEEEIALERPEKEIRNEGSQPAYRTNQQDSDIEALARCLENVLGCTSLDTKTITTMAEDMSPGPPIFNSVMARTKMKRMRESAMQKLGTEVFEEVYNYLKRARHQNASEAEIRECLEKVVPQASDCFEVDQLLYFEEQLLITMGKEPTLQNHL
Method: as §1

[6] = molecular target: T6, SIK3 (Homo sapiens, UniProt Q9Y2K2)
T6 construct: purchased Reaction Biology Corp
Method: as §1

[7] = molecular target: T7, TNIK (Homo sapiens, UniProt Q9UKE5)
T7 construct: purchased Reaction Biology Corp
T7 sequence (Q9UKE5 whole entry): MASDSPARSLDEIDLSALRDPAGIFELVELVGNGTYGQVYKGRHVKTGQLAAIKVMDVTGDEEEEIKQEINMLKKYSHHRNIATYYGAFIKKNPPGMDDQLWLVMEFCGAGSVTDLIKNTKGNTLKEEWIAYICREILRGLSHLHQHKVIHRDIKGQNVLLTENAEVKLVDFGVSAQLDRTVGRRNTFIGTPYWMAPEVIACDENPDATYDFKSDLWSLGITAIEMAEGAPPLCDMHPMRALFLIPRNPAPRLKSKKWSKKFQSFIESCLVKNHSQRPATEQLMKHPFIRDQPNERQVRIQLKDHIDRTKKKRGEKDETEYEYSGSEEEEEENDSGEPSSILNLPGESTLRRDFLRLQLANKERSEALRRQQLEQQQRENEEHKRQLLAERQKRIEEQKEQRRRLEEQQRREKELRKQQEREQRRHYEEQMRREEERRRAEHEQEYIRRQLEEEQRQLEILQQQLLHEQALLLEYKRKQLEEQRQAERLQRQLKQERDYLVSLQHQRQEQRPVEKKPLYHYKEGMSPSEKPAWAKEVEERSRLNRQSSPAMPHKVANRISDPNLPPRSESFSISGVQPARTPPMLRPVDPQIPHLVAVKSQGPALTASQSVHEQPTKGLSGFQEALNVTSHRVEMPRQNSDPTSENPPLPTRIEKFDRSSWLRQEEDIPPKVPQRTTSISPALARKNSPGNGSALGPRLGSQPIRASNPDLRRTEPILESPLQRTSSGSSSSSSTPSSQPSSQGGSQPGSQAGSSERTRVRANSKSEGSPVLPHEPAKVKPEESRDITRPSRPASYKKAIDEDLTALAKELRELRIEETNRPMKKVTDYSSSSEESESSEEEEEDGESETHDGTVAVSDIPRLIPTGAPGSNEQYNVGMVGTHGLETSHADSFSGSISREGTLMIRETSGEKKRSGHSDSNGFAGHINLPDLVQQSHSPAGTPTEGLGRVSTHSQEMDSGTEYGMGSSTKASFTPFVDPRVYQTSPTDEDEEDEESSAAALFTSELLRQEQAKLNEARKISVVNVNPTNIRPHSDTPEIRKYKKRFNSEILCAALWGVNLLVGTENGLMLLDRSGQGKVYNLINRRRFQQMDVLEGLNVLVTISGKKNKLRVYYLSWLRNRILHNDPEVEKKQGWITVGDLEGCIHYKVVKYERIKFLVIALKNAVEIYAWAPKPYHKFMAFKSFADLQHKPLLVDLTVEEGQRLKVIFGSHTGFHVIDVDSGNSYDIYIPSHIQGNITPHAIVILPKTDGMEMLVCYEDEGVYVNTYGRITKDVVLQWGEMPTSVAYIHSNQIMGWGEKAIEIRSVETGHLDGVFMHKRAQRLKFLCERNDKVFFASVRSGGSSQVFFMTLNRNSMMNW
Method: as §1

[8] = molecular target: T8, CDK9/cyclin T2 (Homo sapiens, UniProt P50750)
T8 construct: purchased Reaction Biology Corp
Method: as §1

[9] = molecular target: T9, MRCKb/CDC42BPB (Homo sapiens, UniProt Q9Y5S2)
T9 construct: purchased Reaction Biology Corp
Method: as §1

[10] = molecular target: T10, EGFR (Homo sapiens, UniProt P00533)
T10 construct: purchased Reaction Biology Corp
T10 sequence (P00533 25-1210): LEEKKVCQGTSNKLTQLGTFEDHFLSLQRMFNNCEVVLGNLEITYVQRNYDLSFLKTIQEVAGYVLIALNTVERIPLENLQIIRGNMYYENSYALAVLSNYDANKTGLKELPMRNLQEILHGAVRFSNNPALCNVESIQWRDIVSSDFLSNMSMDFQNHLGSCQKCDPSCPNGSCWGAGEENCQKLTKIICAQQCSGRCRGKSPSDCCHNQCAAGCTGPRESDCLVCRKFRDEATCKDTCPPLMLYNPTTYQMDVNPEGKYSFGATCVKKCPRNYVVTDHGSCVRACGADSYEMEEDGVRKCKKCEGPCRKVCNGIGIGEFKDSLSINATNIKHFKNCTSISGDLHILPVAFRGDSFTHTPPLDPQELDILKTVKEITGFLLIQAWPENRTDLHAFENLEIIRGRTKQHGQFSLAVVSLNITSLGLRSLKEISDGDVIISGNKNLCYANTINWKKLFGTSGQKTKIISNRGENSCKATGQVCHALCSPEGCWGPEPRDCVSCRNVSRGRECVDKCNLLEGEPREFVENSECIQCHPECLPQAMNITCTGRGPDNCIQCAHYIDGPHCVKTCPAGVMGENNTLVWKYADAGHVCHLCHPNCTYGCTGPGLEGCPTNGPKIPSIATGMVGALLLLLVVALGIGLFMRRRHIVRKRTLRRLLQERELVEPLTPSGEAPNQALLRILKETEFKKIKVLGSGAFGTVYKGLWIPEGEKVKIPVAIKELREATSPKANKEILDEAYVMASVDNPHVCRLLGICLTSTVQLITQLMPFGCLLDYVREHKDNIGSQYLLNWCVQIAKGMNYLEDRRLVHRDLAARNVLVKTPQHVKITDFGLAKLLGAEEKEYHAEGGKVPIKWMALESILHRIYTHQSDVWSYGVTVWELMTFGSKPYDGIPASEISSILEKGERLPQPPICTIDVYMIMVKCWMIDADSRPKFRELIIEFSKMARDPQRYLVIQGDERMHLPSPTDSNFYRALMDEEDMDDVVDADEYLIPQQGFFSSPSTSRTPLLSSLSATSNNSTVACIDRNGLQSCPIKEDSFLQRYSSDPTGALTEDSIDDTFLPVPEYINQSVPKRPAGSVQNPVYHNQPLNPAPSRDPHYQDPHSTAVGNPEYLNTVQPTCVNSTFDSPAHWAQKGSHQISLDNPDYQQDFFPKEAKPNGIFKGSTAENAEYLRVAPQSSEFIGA
Method: as §1

[11] = molecular target: T11, ALK4/ACVR1B (Homo sapiens, UniProt P36896)
T11 construct: purchased Reaction Biology Corp
Method: as §1

[12] = molecular target: T12, ULK2 (Homo sapiens, UniProt Q8IYT8)
T12 construct: purchased Reaction Biology Corp
Method: as §1

[13] = molecular target: T13, FLT3 (Homo sapiens, UniProt P36888)
T13 construct: purchased Reaction Biology Corp
Method: as §1

[14] = molecular target: T14, ROS/ROS1 (Homo sapiens, UniProt P08922)
T14 construct: purchased Reaction Biology Corp
Method: as §1

[15] = molecular target: T15, MLK2/MAP3K10 (Homo sapiens, UniProt Q02779)
T15 construct: purchased Reaction Biology Corp
Method: as §1

[16] = molecular target: T16, GSK3b (Homo sapiens, UniProt P49841)
T16 construct: purchased Reaction Biology Corp
Method: as §1

[17] = molecular target: T17, CAMK1g (Homo sapiens, UniProt Q96NX5)
T17 construct: purchased Reaction Biology Corp
Method: as §1

[18] = molecular target: T18, MKK7 (Homo sapiens, UniProt O14733)
T18 construct: purchased Reaction Biology Corp
Method: as §1

[19] = molecular target: T19, PDGFRa (Homo sapiens, UniProt P16234)
T19 construct: purchased Reaction Biology Corp
Method: as §1

[20] = molecular target: T20, Blk (Homo sapiens, UniProt P51451)
T20 construct: purchased Reaction Biology Corp
T20 sequence (P51451 whole entry): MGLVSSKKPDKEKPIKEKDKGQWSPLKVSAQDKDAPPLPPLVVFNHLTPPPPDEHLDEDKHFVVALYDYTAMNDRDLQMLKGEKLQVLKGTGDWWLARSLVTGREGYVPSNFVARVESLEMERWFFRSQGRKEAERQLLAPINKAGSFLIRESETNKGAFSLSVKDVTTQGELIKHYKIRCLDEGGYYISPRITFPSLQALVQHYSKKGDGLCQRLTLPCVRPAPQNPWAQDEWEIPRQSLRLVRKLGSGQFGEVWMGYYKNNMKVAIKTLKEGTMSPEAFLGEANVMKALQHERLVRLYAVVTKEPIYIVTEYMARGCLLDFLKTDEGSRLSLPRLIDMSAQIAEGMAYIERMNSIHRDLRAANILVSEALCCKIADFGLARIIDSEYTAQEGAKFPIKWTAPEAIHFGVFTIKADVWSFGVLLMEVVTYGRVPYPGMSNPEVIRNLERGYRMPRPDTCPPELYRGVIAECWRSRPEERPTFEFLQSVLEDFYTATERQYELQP
Method: as §1

[21] = molecular target: T21, LKB1 (Homo sapiens, UniProt Q15831)
T21 construct: purchased Reaction Biology Corp
Method: as §1

[22] = molecular target: T22, RAF1 (Homo sapiens, UniProt P04049)
T22 construct: purchased Reaction Biology Corp
Method: as §1

[23] = molecular target: T23, EPHA6 (Homo sapiens, UniProt Q9UF33)
T23 construct: purchased Reaction Biology Corp
Method: as §1

[24] = molecular target: T24, FLT1/VEGFR1 (Homo sapiens, UniProt P17948)
T24 construct: purchased Reaction Biology Corp
Method: as §1

[25] = molecular target: T25, CK2a2 (Homo sapiens, UniProt P19784)
T25 construct: purchased Reaction Biology Corp
Method: as §1

[26] = molecular target: T26, CAMK2b (Homo sapiens, UniProt Q13554)
T26 construct: purchased Reaction Biology Corp
Method: as §1

[27] = molecular target: T27, GRK6 (Homo sapiens, UniProt P43250)
T27 construct: purchased Reaction Biology Corp
Method: as §1

[28] = molecular target: T28, TLK2 (Homo sapiens, UniProt Q86UE8)
T28 construct: purchased Reaction Biology Corp
Method: as §1

[29] = molecular target: T29, ERK7/MAPK15 (Homo sapiens, UniProt Q8TD08)
T29 construct: purchased Reaction Biology Corp
Method: as §1

[30] = molecular target: T30, PKA (Homo sapiens, UniProt P17612)
T30 construct: purchased Reaction Biology Corp
Method: as §1

[31] = molecular target: T31, Lyn (Homo sapiens, UniProt P07948)
T31 construct: purchased Reaction Biology Corp
T31 sequence (P07948 whole entry): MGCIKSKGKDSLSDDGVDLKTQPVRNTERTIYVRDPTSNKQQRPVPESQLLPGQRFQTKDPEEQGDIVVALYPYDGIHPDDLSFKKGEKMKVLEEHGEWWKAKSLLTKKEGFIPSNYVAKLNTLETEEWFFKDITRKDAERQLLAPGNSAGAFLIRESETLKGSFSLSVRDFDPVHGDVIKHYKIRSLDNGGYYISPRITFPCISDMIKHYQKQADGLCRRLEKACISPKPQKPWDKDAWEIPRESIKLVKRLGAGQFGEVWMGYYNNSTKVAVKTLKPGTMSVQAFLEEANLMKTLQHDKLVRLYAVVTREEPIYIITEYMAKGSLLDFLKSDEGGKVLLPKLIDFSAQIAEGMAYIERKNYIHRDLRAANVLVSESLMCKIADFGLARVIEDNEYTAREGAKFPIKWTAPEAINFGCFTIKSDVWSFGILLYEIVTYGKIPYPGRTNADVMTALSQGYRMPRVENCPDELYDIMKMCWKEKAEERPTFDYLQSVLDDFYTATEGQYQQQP
Method: as §1

[32] = molecular target: T32, PRKX (Homo sapiens, UniProt P51817)
T32 construct: purchased Reaction Biology Corp
Method: as §1

[33] = molecular target: T33, RSK4 (Homo sapiens, UniProt Q9UK32)
T33 construct: purchased Reaction Biology Corp
Method: as §1

[34] = molecular target: T34, RON/MST1R (Homo sapiens, UniProt Q04912)
T34 construct: purchased Reaction Biology Corp
Method: as §1

[35] = molecular target: T35, RSK1 (Homo sapiens, UniProt Q15418)
T35 construct: purchased Reaction Biology Corp
Method: as §1

[36] = molecular target: T36, DDR1 (Homo sapiens, UniProt Q08345)
T36 construct: purchased Reaction Biology Corp
T36 sequence (Q08345 19-913): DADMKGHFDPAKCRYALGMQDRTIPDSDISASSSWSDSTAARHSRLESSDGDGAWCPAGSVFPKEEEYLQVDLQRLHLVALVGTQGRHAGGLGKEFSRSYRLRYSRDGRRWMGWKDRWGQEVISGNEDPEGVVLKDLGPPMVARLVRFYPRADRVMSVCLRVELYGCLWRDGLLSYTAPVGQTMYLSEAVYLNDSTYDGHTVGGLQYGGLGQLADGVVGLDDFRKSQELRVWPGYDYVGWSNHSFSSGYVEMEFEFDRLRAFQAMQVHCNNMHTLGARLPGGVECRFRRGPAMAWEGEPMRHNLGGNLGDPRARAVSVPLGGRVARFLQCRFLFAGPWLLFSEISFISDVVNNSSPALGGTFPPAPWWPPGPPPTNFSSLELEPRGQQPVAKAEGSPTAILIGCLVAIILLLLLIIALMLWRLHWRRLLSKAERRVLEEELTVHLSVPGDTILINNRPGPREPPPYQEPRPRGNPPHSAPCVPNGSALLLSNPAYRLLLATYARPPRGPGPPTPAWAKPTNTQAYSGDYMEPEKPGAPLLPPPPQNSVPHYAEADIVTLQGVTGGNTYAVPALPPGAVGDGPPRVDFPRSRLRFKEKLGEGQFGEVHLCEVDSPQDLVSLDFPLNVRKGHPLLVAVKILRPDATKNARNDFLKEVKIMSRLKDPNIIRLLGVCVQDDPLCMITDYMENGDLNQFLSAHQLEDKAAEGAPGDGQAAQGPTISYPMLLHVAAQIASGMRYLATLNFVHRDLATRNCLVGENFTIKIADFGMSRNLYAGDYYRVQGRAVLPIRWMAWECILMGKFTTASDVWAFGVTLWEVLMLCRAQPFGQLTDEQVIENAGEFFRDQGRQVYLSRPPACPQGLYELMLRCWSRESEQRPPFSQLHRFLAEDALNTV
Method: as §1

[37] = molecular target: T37, CAMK4 (Homo sapiens, UniProt Q16566)
T37 construct: purchased Reaction Biology Corp
Method: as §1

[38] = molecular target: T38, AKT3 (Homo sapiens, UniProt Q9Y243)
T38 construct: purchased Reaction Biology Corp
Method: as §1

[39] = molecular target: T39, NEK3 (Homo sapiens, UniProt P51956)
T39 construct: purchased Reaction Biology Corp
Method: as §1

[40] = molecular target: T40, ARAF (Homo sapiens, UniProt P10398)
T40 construct: purchased Reaction Biology Corp
Method: as §1

[41] = molecular target: T41, CDK3/cyclin E (Homo sapiens, UniProt Q00526)
T41 construct: purchased Reaction Biology Corp
Method: as §1

[42] = molecular target: T42, BMX/ETK (Homo sapiens, UniProt P51813)
T42 construct: purchased Reaction Biology Corp
Method: as §1

[43] = molecular target: T43, MEKK1 (Homo sapiens, UniProt Q13233)
T43 construct: purchased Reaction Biology Corp
Method: as §1

In the case of `Cc1ccc(Nc2ncc3c(n2)N(C)C(=O)N(c2cc(C(=O)N[C@H](C(=O)N4CCC[C@H]4C(=O)NC(C)(C)C(=O)N[C@@H](CC(C)C)C(=O)N(C)C)C(C)C)ccc2C)C3)cn1` [7a, (S)-N-(1-(((S)-1-(dimethylamino)-4-methyl-1-oxopentan-2-yl)amino)-2-methyl-1-oxopropan-2-yl)-1-((4-methyl-3-(1-methyl-7-((6-methylpyridin-3-yl)amino)-2-oxo-1,4-dihydropyrimido[4,5-d]pyrimidin-3(2H)-yl)benzoyl)-L-valyl)pyrrolidine-2-carboxamide] (X1-VP[Aib]L-NMe2), the inhibition at 1 µM [1] is reported as 1%, the inhibition at 1 µM [2] is reported as 0% and the inhibition at 1 µM [3] is reported as 0%. It also gave an inhibition at 1 µM [4] of 6%, an inhibition at 1 µM [5] of 1% and an inhibition at 1 µM [6] of 12%. For the same compound, the inhibition at 1 µM [7] was 6%, the inhibition at 1 µM [8] was 0% and the inhibition at 1 µM [9] was 0%. For the same compound, the inhibition at 1 µM [10] was 0%, the inhibition at 1 µM [11] was 0% and the inhibition at 1 µM [12] was 5%. The inhibition at 1 µM [13] was 18%, the inhibition at 1 µM [14] was 9% and the inhibition at 1 µM [15] was 16%. It also gave an inhibition at 1 µM [16] of 0%, an inhibition at 1 µM [17] of 7% and an inhibition at 1 µM [18] of 2%. It also gave an inhibition at 1 µM [19] of 31%, an inhibition at 1 µM [20] of 73% and an inhibition at 1 µM [21] of 0%. The inhibition at 1 µM [22] was 69%, the inhibition at 1 µM [23] was 5% and the inhibition at 1 µM [24] was 9%. The inhibition at 1 µM [25] was 3%, the inhibition at 1 µM [26] was 3% and the inhibition at 1 µM [27] was 4%. It also gave an inhibition at 1 µM [28] of 0%, an inhibition at 1 µM [29] of 3% and an inhibition at 1 µM [30] of 6%. It also gave an inhibition at 1 µM [31] of 73%, an inhibition at 1 µM [32] of 0% and an inhibition at 1 µM [33] of 0%. For the same compound, the inhibition at 1 µM [34] was 27%, the inhibition at 1 µM [35] was 17% and the inhibition at 1 µM [36] was 80%. For the same compound, the inhibition at 1 µM [37] was 0%, the inhibition at 1 µM [38] was 10% and the inhibition at 1 µM [39] was 0%. It also gave an inhibition at 1 µM [40] of 34%, an inhibition at 1 µM [41] of 0% and an inhibition at 1 µM [42] of 73%. It also gave an inhibition at 1 µM [43] of 3%.
